Drawing on ChEMBL document CHEMBL1159014, “Isolation of potential cancer chemopreventive agents from Eriodictyon californicum” (1992), this text covers inhibition and Activity for eleven compounds.

A short description of assay [1]: Chemopreventive activity in Syrian hamster embryo cells assessed as inhibition of metabolism of [3H]benzo(a)pyrene to water-soluble metabolites after 24 hrs at 20 ug/ml relative to control. The assay is classed as functional. The settings on record: Mesocricetus auratus, read-out: INH.
The nature of assay [2]: Chemopreventive activity in Syrian hamster embryo cells assessed as inhibition of metabolism of [3H]benzo(a)pyrene to water-soluble metabolites after 24 hrs at 10 ug/ml relative to control. Format: functional. The note with it: Mesocricetus auratus, read-out: INH.
Assay [3] can be described thus: Chemopreventive activity in Syrian hamster embryo cells assessed as inhibition of metabolism of [3H]benzo(a)pyrene to water-soluble metabolites after 24 hrs at 5 ug/ml relative to control. Format: functional. The note with it: Mesocricetus auratus, read-out: INH.
The species named for a further assay is Mesocricetus auratus. In words: Chemopreventive activity in Syrian hamster embryo cells assessed as inhibition of [3H]benzo(a)pyrene-DNA binding at 10 ug/ml by [35S]phosphorothote post-labeling-HPLC. The assay is classed as functional.
Assay [4] in a line: Chemopreventive activity in Syrian hamster embryo cells assessed as pmol of [3H]benzo(a)pyrene binding per mg of DNA at 10 ug/ml by [35S]phosphorothote post-labeling-HPLC. Format: functional, Mesocricetus auratus.
Assay [5] can be described thus: Chemopreventive activity in Syrian hamster embryo cells assessed as pmol of (+)-anti-benzo(a)pyrene-7,8-diol-9,10-epoxide -dGuo adduct per mg of DNA at 10 ug/ml by [35S]phosphorothote post-labeling-HPLC. Format: functional, Mesocricetus auratus.

As to `COc1cc(C2CC(=O)c3c(cc(O)c(OC)c3O)O2)ccc1O` (stereo unspecified), the inhibition at 20 µg/mL in assay [1] was 32%. Moreover, the inhibition at 10 µg/mL in assay [2] came to 19%. For the same compound, the inhibition at 5 µg/mL in assay [3] was determined as 9%.
`COc1cc([C@@H]2CC(=O)c3c(O)cc(O)cc3O2)ccc1OC(=O)C(C)C`: the inhibition at 20 µg/mL in assay [1] was determined as 52%.
Take `COc1cc2c(c(O)c1OC)C(=O)CC(c1ccc(O)cc1)O2` (stereo unspecified): the inhibition at 20 µg/mL in assay [1] was determined as 36%.
For the compound `O=c1cc(-c2ccccc2)oc2cc(O)cc(O)c12` [CHRYSIN], in assay [1], the inhibition at 20 µg/mL stood at 86%. Moreover, the inhibition at 10 µg/mL in assay [2] is 44%. The inhibition at 5 µg/mL in assay [3] was 14%.
For the compound `COc1cc(-c2cc(=O)c3c(O)cc(O)cc3o2)ccc1O` [CHRYSOERIOL], the inhibition at 20 µg/mL in assay [1] worked out at 96%. Moreover, the inhibition at 10 µg/mL in assay [2] came out at 85%. Besides, the inhibition at 5 µg/mL in assay [3] is 60%. Further, the inhibition in the assay filed under Mesocricetus auratus was found to be 32%. The Activity in assay [4] is recorded as 44.9 pmol; in assay [5] it was 22.5 pmol.
For the compound `COc1cc2oc(-c3ccc(O)cc3)cc(=O)c2c(O)c1OC` [CIRSIMARITIN], the inhibition at 20 µg/mL in assay [1] came out at 92%. In assay [2], the inhibition at 10 µg/mL was found to be 85%. In addition, the inhibition at 5 µg/mL in assay [3] came to 69%. Moreover, the inhibition in the assay listed under Mesocricetus auratus was determined as 71%. Also, the Activity in assay [4] amounted to 19.4 pmol; in assay [5], 11.5 pmol.
On to `O=C1C[C@@H](c2ccc(O)c(O)c2)Oc2cc(O)cc(O)c21` [ERIODICTYOL], for which the inhibition at 20 µg/mL in assay [1] was found to be 55%. In addition, the inhibition at 10 µg/mL in assay [2] turned out to be 40%. In addition, in assay [3], the inhibition at 5 µg/mL is 16%.
The corresponding values for `COc1c(O)cc2oc(-c3ccc(O)cc3)cc(=O)c2c1O` [HISPIDULIN] are 92%, 75% and 18%.
As for `COc1cc([C@@H]2CC(=O)c3c(O)cc(O)cc3O2)ccc1O` [HOMOERIODICTYOL], the inhibition at 20 µg/mL in assay [1] was determined as 36%.
On to `O=C1C[C@@H](c2ccccc2)Oc2cc(O)cc(O)c21` [PINOCEMBRIN], for which the inhibition at 20 µg/mL in assay [1] is 66%. Moreover, in assay [2], the inhibition at 10 µg/mL amounted to 29%. Moreover, the inhibition at 5 µg/mL in assay [3] amounted to 8%.
As for `COc1cc(O)c2c(c1)O[C@H](c1ccc(O)cc1)CC2=O` [SAKURANETIN], in assay [1], the inhibition at 20 µg/mL was found to be 52%.
